This is an account of results in patent US20160039825A1 (BIOGEN MA INC., priority 2013, published 2016).

Some results are limits rather than exact numbers.

This assay deals with T1, Human ATX protein (Homo sapiens, UniProt Q13822).
T1 construct: made in house
The assay can be described thus: Autotaxin (ATX) assay, FRET with FS-3 substrate. The following applies: upper bound bins (no greater than 100, 250 or 500 nM); FS-3 2 μM, ATX 1.0 μg/mL. It counts as biochemical. The source says: ATX (Autotaxin) is a 125 KDa glycoprotein with lysophospholipase D (LPLD) activity that generates the bioactive lipid lysophosphatidic acid (LPA) from lysophosphatidylcholine (LPC). The ATX biochemical assay utilizes a FRET (fluorescence resonance energy transfer) technology platform. The fluorescence signal of FRET substrate FS-3 is quenched due to intra-molecular FRET of a fluorophore to a non-fluorescing quencher (Ferguson, C. G., et al., Org Lett. 2006 May 11; 8(10): 2023-2026, which is incorporated by reference in its entirety). ATX catalyzes the hydrolysis of the substrate which separates the dabsyl quencher from the fluorescein reporter, which becomes fluorescent. The reaction is monitored by a SpectraMax M5 (Molecular Devices, Sunnyvale, Calif.) with at excitation wavelength 485 nm and emission wavelength […].
Fatty acid free-BSA (Sigma A8806): 10 mg/mL in H2O, stored at 4° C.
2×ATX assay buffer: 100 mM Tris, 280 mM NaCl, 10 mM KCl, 2 mM CaCl2, 2 mM MgCl2, pH 7.4.
Human ATX protein: expressed and purified in house. Stored at −80° C.
Substrate FS-3 (Echelon, L-2000): 100 μg in 77.74 μL H2O (1 mM stock), stored at −20° C.
384-well flat bottom plates—Corning #3575.
Compound dilution—All compounds were provided at 10 mM in 100% DMSO. In the first well, 2 μL of 10 mM compound was added to 78 μL of DMSO (1:40 dilution). In subsequent wells 3-fold dilution (total 10 dilutions) were performed.
1×ATX assay buffer was made up with a final concentration of 1 mg/mL fatty acid free-BSA using 2×ATX assay buffer, 10 mg/ml fatty acid free-BSA and ddH2O.
ATX protein was diluted with 1×ATX assay buffer to a concentration of 1.32 μg/mL (1.32×). 38 μL was added per well to the assay plate. The final concentration of ATX in the reaction as 1.0 μg/mL.
2 μL per well of compounds was transferred to provide the desired concentration. The plate was centrifuged, then incubated at room temperature for 30 minutes on the shaker.
FS-3 was diluted with 1×ATX assay buffer to a concentration of FS-3 of 10 μM (5×). Then, 10 μL was added per well to the assay plate. The final concentration of FS-3 in the reaction was 2 μM. The plate was centrifuged. The plate was kept shaking at room temperature for 2 hours. Because FS-3 substrate is light sensitive, plates were kept covered and protected from light.
Fluorescence was measured using SpectraMax M5 (excitation at 485 nm/emission at 538 nm, top read).
In general, IC50 refers to the concentration that inhibits the measured activity by half. The low end stands for higher potency, the high end for lower potency. In turn, `O=C(O)c1cc2n(n1)CCCN(C(=O)OCc1cc(F)cc(Cl)c1)C2` [Example 68, 5-(((3-Chloro-5-fluorobenzyl)oxy)carbonyl)-5,6,7,8-tetrahydro-4H-pyrazolo[1,5-a][1,4]diazepine-2-carboxylic acid] yielded an IC50 of no more than 500 nM.
The molecule `O=C(O)c1cc2n(n1)CCCN(C(=O)OCc1cc(F)cc(Br)c1)C2` [Example 75, 5-(((3-Bromo-5-fluorobenzyl)oxy)carbonyl)-5,6,7,8-tetrahydro-4H-pyrazolo[1,5-a][1,4]diazepine-2-carb oxylic acid] showed an IC50 of no more than 500 nM.
The molecule `O=C(O)c1cc2n(n1)CCCN(C(=O)CCc1cc(C(F)(F)F)cc(C(F)(F)F)c1)C2` [Example 82, 5-(3-(3,5-bis(Trifluoromethyl)phenyl)propanoyl)-5,6,7,8-tetrahydro-4H-pyrazolo[1,5-a][1,4]diazepine-2-carboxylic acid] returned an IC50 of no more than 100 nM.
Molecule `O=C(O)c1cc2n(n1)CCCN(C(=O)CCc1cc(Cl)cc(Cl)c1)C2` [Example 83, 5-(3-(3,5-Dichlorophenyl)propanoyl)-5,6,7,8-tetrahydro-4H-pyrazolo[1,5-a][1,4]diazepine-2-carboxylic acid] had an IC50 of no more than 100 nM.
For the molecule `O=C(N[C@H]1CC[C@@H](C(=O)O)CC1)c1cc2n(n1)CCCN(C(=O)OCc1cc(Cl)cc(Cl)c1)C2` [Example 85, (cis)-4-(5-(((3,5-Dichlorobenzyl)oxy)carbonyl)-5,6,7,8-tetrahydro-4H-pyrazolo[1,5-a][1,4]diazepine-2-carboxamido)cyclohexanecarboxylic acid], the IC50 is no more than 100 nM.
The value for `O=C(N[C@H]1CC[C@H](C(=O)O)CC1)c1cc2n(n1)CCCN(C(=O)OCc1cc(Cl)cc(Cl)c1)C2` [Example 86, (trans)-4-(5-(((3,5-Dichlorobenzyl)oxy)carbonyl)-5,6,7,8-tetrahydro-4H-pyrazolo[1,5-a][1,4]diazepine-2-carboxamido)cyclohexanecarboxylic acid] was no more than 250 nM.
Regarding `O=C(O)C1CCN(C(=O)c2cc3n(n2)CCCN(C(=O)OCc2cc(Cl)cc(Cl)c2)C3)CC1` [Example 87, 1-(5-(((3,5-Dichlorobenzyl)oxy)carbonyl)-5,6,7,8-tetrahydro-4H-pyrazolo[1,5-a][1,4]diazepine-2-carbonyl)piperidine-4-carboxylic acid], the IC50 was no more than 100 nM.
`O=C(O)C1CCCN(C(=O)c2cc3n(n2)CCCN(C(=O)OCc2cc(Cl)cc(Cl)c2)C3)C1` (stereo not shown) [Example 88, 1-(5-(((3,5-dichlorobenzyl)oxy)carbonyl)-5,6,7,8-tetrahydro-4H-pyrazolo[1,5-a][1,4]diazepine-2-carbonyl)piperidine-3-carboxylic acid] showed an IC50 of no more than 250 nM.
For the molecule `O=C(O)C1CC2CCCC(C1)N2C(=O)c1cc2n(n1)CCCN(C(=O)CCc1cc(Cl)cc(Cl)c1)C2` (stereo not shown) [Example 90, 9-(5-(3-(3,5-Dichlorophenyl)propanoyl)-5,6,7,8-tetrahydro-4H-pyrazolo[1,5-a][1,4]diazepine-2-carbonyl)-9-azabicyclo[3.3.1]nonane-3-carboxylic acid], the IC50 was no more than 100 nM.
Molecule `O=C(O)C1CC2CCCC(C1)N2C(=O)c1cc2n(n1)CCN(C(=O)CCc1cc(Cl)cc(Cl)c1)C2` (stereo not shown) [Example 92, 9-(5-(3-(3,5-Dichlorophenyl)propanoyl)-4,5,6,7-tetrahydropyrazolo[1,5-a]pyrazine-2-carbonyl)-9-azabicyclo[3.3.1]nonane-3-carboxylic acid] returned an IC50 of no more than 100 nM.
In the case of `O=C(O)C1CC2CCC(C1)N2C(=O)c1cc2n(n1)CCN(C(=O)CCc1cc(Cl)cc(Cl)c1)C2` (stereo not shown) [Example 93, 8-(5-(3-(3,5-Dichlorophenyl)propanoyl)-4,5,6,7-tetrahydropyrazolo[1,5-a]pyrazine-2-carbonyl)-8-azabicyclo[3.2.1]octane-3-carboxylic acid], the IC50 was no more than 500 nM.
`O=C(CCc1cc(Cl)cc(Cl)c1)N1CCn2nc(C(=O)N3C4CCCC3CCC4)cc2C1` [Example 94, 1-(2-(9-Azabicyclo[3.3.1]nonane-9-carbonyl)-6,7-dihydropyrazolo[1,5-a]pyrazin-5(4H)-yl)-3-(3,5-dichlorophenyl)propan-1-one] yielded an IC50 of no more than 100 nM.
In the case of `COC(=O)C1CC2CCCC(C1)N2C(=O)c1cc2n(n1)CCCN(C(=O)OCc1cc(Cl)cc(Cl)c1)C2` (stereo not shown) [Example 95, 3,5-Dichlorobenzyl 2-(3-(methoxycarbonyl)-9-azabicyclo[3.3.1]nonane-9-carbonyl)-7,8-dihydro-4H-pyrazolo[1,5-a][1,4]diazepine-5(6H)-carboxylate] it was no more than 100 nM; in that of `O=C(O)C1CC2CCC(C1)N2C(=O)c1cc2n(n1)CCCN(C(=O)OCc1cc(Cl)cc(Cl)c1)C2` (stereo not shown) [Example 97, 8-(5-(((3,5-Dichlorobenzyl)oxy)carbonyl)-5,6,7,8-tetrahydro-4H-pyrazolo[1,5-a][1,4]diazepine-2-carbonyl)-8-azabicyclo[3.2.1]octane-3-carboxylic acid], no more than 100 nM.
`CCOC(=O)c1cc2n(c1)CCCN(C(=O)OCc1cc(Cl)cc(Cl)c1)C2` [Example 99, 2-(3,5-Dichlorobenzyl) 8-ethyl 4,5-dihydro-1H-pyrrolo[1,2-a][1,4]diazepine-2,8(3H)-dicarboxylate]: the IC50 was no more than 500 nM.
As for `O=C(O)c1cc2n(c1)CCCN(C(=O)OCc1cc(Cl)cc(Cl)c1)C2` [Example 100, 2-(((3,5-Dichlorobenzyl)oxy)carbonyl)-2,3,4,5-tetrahydro-1H-pyrrolo[1,2-a][1,4]diazepine-8-carboxylic acid], the IC50 is no more than 100 nM.
For `O=C(OCc1cc(Cl)cc(Cl)c1)N1CCCn2nc(C(=O)N3CCC(O)CC3)cc2C1` [Example 101, 3,5-Dichlorobenzyl 2-(4-hydroxypiperidine-1-carbonyl)-7,8-dihydro-4H-pyrazolo[1,5-a][1,4]diazepine-5(6H)-carboxylate], the IC50 is no more than 100 nM.
The molecule `NC(=O)c1cc2n(n1)CCCN(C(=O)OCc1cc(Cl)cc(Cl)c1)C2` [Example 102, 3,5-Dichlorobenzyl 2-carbamoyl-7,8-dihydro-4H-pyrazolo[1,5-a][1,4]diazepine-5(6H)-carboxylate] displayed an IC50 of no more than 100 nM.
`O=C(O)C1CC2CCCC(C1)N2C(=O)c1cc2n(c1)CCCN(C(=O)OCc1cc(Cl)cc(Cl)c1)C2` (stereo not shown) [Example 103] gave an IC50 of no more than 100 nM.
Take `CCOC(=O)c1cc2n(n1)CCCN(C(=O)OCc1cc(C)cc(C(F)(F)F)c1)C2` [Example 105, 2-Ethyl 5-(3-methyl-5-(trifluoromethyl)benzyl) 7,8-dihydro-4H-pyrazolo[1,5-a][1,4]diazepine-2,5(6H)-dicarboxylate]: the IC50 is no more than 100 nM.
Turning to `CCOC(=O)c1cc2n(c1)CCCN(C(=O)OCc1cc(C(F)(F)F)cc(C(F)(F)F)c1)C2` [Example 106, 2-(3,5-Bis(trifluoromethyl)benzyl) 8-ethyl 4,5-dihydro-1H-pyrrolo[1,2-a][1,4]diazepine-2,8(3H)-dicarboxylate], the IC50 was no more than 100 nM.
The value for `CCOC(=O)c1nn2c(c1Cl)CN(C(=O)OCc1cc(C(F)(F)F)cc(C(F)(F)F)c1)CCC2` [Example 108, 5-(3,5-Bis(trifluoromethyl)benzyl) 2-ethyl 3-chloro-7,8-dihydro-4H-pyrazolo[1,5-a][1.4]diazepine-2,5(6H)-dicarboxylate] was no more than 100 nM.
In the case of `Cc1cc(COC(=O)N2CCCn3nc(C(=O)O)cc3C2)cc(C(F)(F)F)c1` [Example 109, 5-(((3-Methyl-5-(trifluoromethyl)benzyl)oxy)carbonyl)-5,6,7,8-tetrahydro-4H-pyrazolo[1,5-a][1,4]diazepine-2-carboxylic acid] it was no more than 100 nM; in that of `O=C(O)c1nn2c(c1Cl)CN(C(=O)OCc1cc(C(F)(F)F)cc(C(F)(F)F)c1)CCC2` [Example 110, 5-(((3,5-Bis(trifluoromethyl)benzyl)oxy)carbonyl)-3-chloro-5,6,7,8-tetrahydro-4H-pyrazolo[1,5-a][1,4]diazepine-2-carboxylic acid], no more than 100 nM.
The value for `CC1CN(C(=O)OCc2cc(C(F)(F)F)cc(C(F)(F)F)c2)Cc2cc(C(=O)O)nn2C1` (stereo not shown) [Example 111, 5-(((3,5-Bis(trifluoromethyl)benzyl)oxy)carbonyl)-7-methyl-5,6,7,8-tetrahydro-4H-pyrazolo[1,5-a][1,4]diazepine-2-carboxylic acid] was no more than 100 nM.
